From patent US8058243B2, “Method for treating a brain cancer with ifenprodil” (HSC Research and Development Limited Partnership, priority 2006, dated 2011) come the findings set out here.

For this assay, the system named is murine neural precursor cells (neurosphere cultures). Briefly: HTS of LOPAC library against secondary neurosphere cultures, MTT proliferation assay at 3 μM, day 7 (z score, P value). The class given is cell-based, mouse.
[1] abbreviates: LOPAC screen, neurosphere MTT proliferation, 3 μM, day 7.
The mark [2] stands for this setting: yes/no: significantly inhibited neurosphere proliferation (P<0.01) in primary screen.
Setting [3] is: primary LOPAC screen, 3 μM, MTT, neurosphere proliferation.
Where [4] appears, read: yes/no: significantly inhibited neurosphere proliferation in the primary screen.
The mark [5] stands for this setting: LOPAC library screen, 3 μM, MTT, secondary neurosphere cultures, day 7.
[6] abbreviates: LOPAC primary screen, neurosphere MTT proliferation, 3 μM, day 7.
Where [7] appears, read: yes/no: significantly inhibited neurosphere proliferation in primary screen.
The mark [8] stands for this setting: LOPAC library screen at 3 μM, secondary neurosphere cultures, MTT.
Where [9] appears, read: yes = significantly inhibited neurosphere proliferation (P<0.01) in the primary screen.
[10] abbreviates: LOPAC library screen, 3 μM, MTT, neurosphere cultures.
[11] abbreviates: yes/no: significantly inhibited neurosphere proliferation (P<0.01) in the primary screen.

Where a name gives a salt, the structure may show the parent alone. Read-outs that look alike come from different tables or passages of the source.

For the compound `CCCCOc1cc(CC2CNC(=O)N2)ccc1OC` (racemic) [Ro 20-1724], the “Z Score” value was 0.5874. The compound also displayed a Z score under setting [1] of 0.587. Under setting [2], the Activity result was “no”.

For the compound `CC(=O)NCCc1ccc(O)c(O)c1.O` [N-Acetyldopamine monohydrate], the “Z Score” value came to 0.4667. For the same compound, the Z score under setting [3] came to 0.467. The Activity result under setting [4] is “no”.

As for `Cc1cc(O)c2c(c1)C(=O)c1cc(O)cc(O)c1C2=O` [Emodin], for the setting “168 h, 3 µM”, the “Z Score” value is −0.4835 and the Z score is listed as −0.483. Further, the Activity entry under setting [2] is given as “no”.

As for `CC(N/C(=N\C#N)Nc1ccncc1)C(C)(C)C` (centres unmarked) [Pinacidil], the “Z Score” value under setting [5] is reported as −2.117. The compound further gave a Z score under setting [6] of −2.117. Moreover, the Activity entry under setting [7] is reported as “no”.

Turning to `CC12CC3CC(C)(C1)CC(N)(C3)C2` [Memantine hydrochloride], the “Z Score” value under setting [8] is given as −0.141. Further, under setting [6], the Z score is listed as −0.141. Moreover, the Activity entry under setting [9] is on record as “no”.

For `Cc1ncc(CNC(=O)N(CCCl)N=O)c(N)n1.Cl` [Nimsutine hydrochloride], the Z score under setting [6] is on record as −0.652. Also, under setting [9], the Activity result was “no”.

For `FC(F)(F)c1ccccc1-n1ccnc1` [1-[2-(Trifluoromethyl)phenyl]imidazole], for the setting “168 h, 3 µM”, the “Z Score” value was −0.1576 and the Z score is recorded as −0.158. Moreover, the Activity result under setting [7] is reported as “no”.

Take `NN=C(N)N.NN=C(N)N.O=S(=O)(O)O` [Aminoguanidine hemisulfate]: the Activity entry is given as “no”, the “Z Score” value was −1.219 and the Z score is −1.219.

For the compound `Cc1cccc(C(=O)NCN2CCN(c3ccccc3C#N)CC2)c1.O=C(O)/C=C\C(=O)O` [PD 168,077 maleate], the “Z Score” value is recorded as −1.516. Moreover, under setting [6], the Z score is given as −1.516. Besides, the Activity entry under setting [7] is on record as “no”.

On to `COc1ccc2c(c1)CC[C@@H]1[C@@H]2CC[C@]2(C)[C@@H](NCCCCCCN3C(=O)C=CC3=O)CC[C@@H]12` [U-73122], for which, under setting [4], the Activity result is on record as “no”.

Turning to `CCCCCCCCCC[Si](C)(C)CCC(=O)NC(Cc1ccc(C)cc1)c1ccccc1` (centres unmarked) [Sandoz 58-035], the “Z Score” value under setting [10] is on record as 0.3325. The compound further displayed a Z score under setting [3] of 0.332. Moreover, the Activity entry under setting [4] is “no”.

Consider `CCCn1c(=O)c2[nH]c(C3CCCC3)nc2n(CCC)c1=O` [8-Cyclopentyl-1,3-dipropylxanthine], for which, where the note is “168 h, 3 µM”, the “Z Score” value is recorded as −0.07021 and the Z score is given as −0.070. For the same compound, the Activity result under setting [2] was “no”.

`COc1ccc(C(=O)NCc2cccnc2)cc1C(=O)NCc1cccnc1` [Picotamide]: the “Z Score” value (LOPAC library screen at 3 μM, MTT, secondary neurosphere cultures, screened in singlets) is listed as 1.736. The compound further showed a Z score under setting [6] of 1.736. Further, under setting [7], the Activity result was “no”.

Turning to `C[N+](C)(C)CCOP(=O)([O-])OP(=O)([O-])OC[C@H]1O[C@@H](n2ccc(N)nc2=O)[C@H](O)[C@@H]1O.[Na+]` [Citicoline sodium], under setting [8], the “Z Score” value is −0.1331. Under setting [1], this compound yielded a Z score of −0.133. In addition, the Activity result under setting [2] is reported as “no”.

On to `COc1cc2c(cc1OC)-c1c/c(=N\c3c(C)cc(C)cc3C)n(C)c(=O)n1CC2` [Trequinsin hydrochloride], for which the “Z Score” value under setting [8] is reported as −0.9709. This compound also had a Z score under setting [3] of −0.971. Further, the Activity result under setting [4] is given as “no”.

Consider `CC(C)Cc1ccc(C(C)C(=O)O)cc1` (racemic) [(±)-Ibuprofen], for which the Z score under setting [6] is −0.262. Besides, the Activity entry under setting [2] is recorded as “no”.

For `N=C(N)NN` [Aminoguanidine hydrochloride], the “Z Score” value under setting [10] is −0.000731. Moreover, under setting [3], the Z score is −0.001. Also, the Activity entry under setting [4] is reported as “no”.

As for `Clc1ccccc1C(c1ccccc1)(c1ccccc1)n1ccnc1` [Clotrimazole], under setting [8], the “Z Score” value is −0.7158. For the same compound, the Z score under setting [1] is recorded as −0.716. Also, the Activity entry under setting [2] was “no”.

Compound `Fc1ccc(C(OCCCc2c[nH]cn2)c2ccc(F)cc2)cc1` [3-(1H-Imidazol-4-yl)propyl di(p-fluorophenyl)methyl ether] had a Z score under setting [6] of −0.015. Also, the Activity entry under setting [2] is “no”.

`CC(=O)O.NC(=NCCC[C@H](N)C(=O)O)NO` [NG-Hydroxy-L-arginine acetate]: the “Z Score” value under setting [5] is listed as −10.96. The Z score under setting [6] is on record as −10.958. Under setting [11], the Activity entry is “yes”.

Regarding `CCCCCCCC/C=C\CCCCCCCC(=O)O` [Oleic Acid], the “Z Score” value under setting [8] is reported as −0.3449.

With `Cl.Cl.Clc1cccc(N2CCNCC2)c1`, the “Z Score” value is 0.9516.

As to `CCCN1C[C@H](CSC)C[C@@H]2c3cccc4[nH]cc(c34)C[C@H]21` [Pergolide methanesulfonate], the “Z Score” value under setting [5] is −2.657. This compound had a Z score under setting [6] of −2.657. Also, under setting [11], the Activity entry is “yes”.

Take `Cl.c1ccc(CN(CC2=NCCN2)c2ccccc2)cc1` [Antozoline hydrochloride]: the “Z Score” value came to 0.4854. For the same compound, under setting [3], the Z score was 0.485. For the same compound, under setting [4], the Activity result is “no”.

`CCCN1CCC[C@@H]2Cc3nc(N)ncc3C[C@H]21` [Quinelorane dihydrochloride] had a Z score under setting [6] of −1.567. Further, the Activity result under setting [7] is recorded as “no”.

Regarding `CCCN(CCc1ccccc1)C1CCc2c(O)cccc2C1.Cl` (centres unmarked) [(B1)-PPHT hydrochloride], the “Z Score” value is recorded as −1.915.

Regarding `CCn1c(=O)c2[nH]c(-c3ccccc3)nc2n(CC)c1=O` [1,3-Diethyl-8-phenylxanthine], for the setting “168 h, 3 µM”, the “Z Score” value is reported as 2.005 and the Z score was 2.005. For the same compound, the Activity entry under setting [4] is “no”.

As to `Cc1[nH]c(=O)c(C#N)cc1-c1ccncc1` [Milrinone], under setting [10], the “Z Score” value amounted to 0.05506. This compound also had a Z score under setting [6] of 0.055. In addition, the Activity entry under setting [9] is reported as “no”.

For `Nc1ccc(CCNc2ncnc3c2ncn3[C@@H]2O[C@H](CO)[C@@H](O)[C@H]2O)cc1` [N6-2-(4-Aminophenyl)ethyladenosine], under “168 h, 3 µM”, the “Z Score” value is given as −1.323 and the Z score is reported as −1.323. The Activity result under setting [4] is reported as “no”.

Turning to `N[C@@H](CC(=O)O)C(=O)O` [L-Aspartic acid], the Activity result is listed as “no”. Moreover, under “168 h, 3 µM”, the “Z Score” value stood at 0.1632 and the Z score came out at 0.163.

With `N=C(N)N/N=C/c1c(Cl)cccc1Cl` [Guanabenz acetate], under setting [5], the “Z Score” value was −1.906. Besides, the Z score under setting [6] is given as −1.906. Under setting [2], the Activity result was “no”.

As for L-Methionine sulfoximine, the Activity entry is on record as “no”, the “Z Score” value worked out at 0.08671 and the Z score is 0.087.

`COc1ccc(Cl)cc1C(=O)NCCc1ccc(S(=O)(=O)NC(=O)NC2CCCCC2)cc1` [Glibenclamide]: under setting [8], the “Z Score” value was −0.36. This compound also returned a Z score under setting [6] of −0.360. Besides, the Activity entry under setting [2] is given as “no”.

Compound `CCCN(CCC)C1Cc2cc(OC)c(OC)cc2C1.O=C(O)/C=C\C(=O)O` [U-99194A meleate] gave a Z score under setting [6] of 1.255. Further, under setting [11], the Activity entry is recorded as “no”.

For `C[N+](C)(C)CC=O` [Betaine aldehyde chloride], the Activity result is “no”. Moreover, under “168 h, 3 µM”, the “Z Score” value is listed as −0.07007 and the Z score was −0.070.

Regarding S-(−)-Eticlopride hydrochloride, the “Z Score” value is on record as −5.158.

`COc1cc(C(O)CN)ccc1O.Cl` (racemic) [(±)-Normetanephrine hydrochlodride] returned a Z score under setting [6] of −1.796. For the same compound, under setting [9], the Activity entry was “no”.

With `CN1[C@@H]2CC[C@H]1C[C@@H](OC(=O)C(CO)c1ccccc1)C2` (some centres unmarked) [Atropine sulfate], the Activity result is “no”, the “Z Score” value is reported as 1.244 and the Z score is 1.244.

In turn, `CC(N)c1cccc(Cl)c1Cl.Cl` (racemic) [(±)-2,3-Dichloro-alpha-methylbenzylamine hydrochloride] registered a Z score under setting [1] of −2.251. Also, the Activity entry under setting [2] was “no”.

Regarding `CCN(CC)C(=O)c1ccc(O)c(OC)c1` [Vanillic acid diethylamide], the “Z Score” value under setting [8] was −0.5948. The compound also registered a Z score under setting [1] of −0.595. In addition, under setting [2], the Activity entry is “no”.

For `NC(=O)N1c2ccccc2C=Cc2ccccc21` [Carbamazepine], the “Z Score” value under setting [10] was 1.114. Moreover, under setting [1], the Z score is reported as 1.114. Further, under setting [2], the Activity entry is recorded as “no”.

Take `N[C@@H]1C[C@H]1c1ccccc1` [Tranylcypromine hydrochloride]: the “Z Score” value under setting [5] is −1.441. This compound returned a Z score under setting [6] of −1.441. For the same compound, the Activity entry under setting [7] is “no”.

For `C=C/C(C)=C/[C@@]1(C)SC(=O)C(C)=C1O` [Thiolactomycin], the “Z Score” value under setting [5] was −1.3. Moreover, the Z score under setting [6] was −1.300. In addition, the Activity result under setting [7] is “no”.

Take `Cc1ccc(S(=O)(=O)N[C@@H](Cc2ccccc2)C(=O)CCl)cc1`: the “Z Score” value was found to be 0.3367. Also, under setting [3], the Z score is given as 0.337. Besides, the Activity entry under setting [4] is recorded as “no”.

As to `OCCN1CCN(CCCN2c3ccccc3Sc3ccc(C(F)(F)F)cc32)CC1` [Fluphenazine dihydrochloride], under “168 h, 3 µM”, the “Z Score” value is given as −10.2 and the Z score is reported as −10.197. The Activity result under setting [11] is on record as “yes”.

For `COc1cc(CC(C)N)c(OC)cc1I.Cl` (centres unmarked) [(B1)-DOI hydrochloride], the “Z Score” value was −1.345.

With `Oc1ccc(O)cc1` [Hydroquinone], the “Z Score” value under setting [10] came to 0.428. Under setting [6], this compound registered a Z score of 0.428. In addition, under setting [2], the Activity result is recorded as “no”.

`Cn1c(=O)c2[nH]c(-c3ccccc3)nc2n(C)c1=O` [1,3-Dimethyl-8-phenylxanthine]: where the note is “168 h, 3 µM”, the “Z Score” value is on record as 0.7518 and the Z score stood at 0.752. Also, the Activity entry under setting [7] is “no”.
